What was measured:
[1] = biological target: T1, soybean lipoxygenase isoenzyme-1 (SLOX-1) (Glycine max, UniProt P08170); assay: In vitro inhibition of soybean lipoxygenase; assay type: biochemical; details: for IC50: pH 9.0, read-out: LOX Inh. IC50; for LOX Inh. IC50: pH 9.0
T1 construct: purchased Merck and Sigma-Aldrich
T1 sequence (P08170 1-839): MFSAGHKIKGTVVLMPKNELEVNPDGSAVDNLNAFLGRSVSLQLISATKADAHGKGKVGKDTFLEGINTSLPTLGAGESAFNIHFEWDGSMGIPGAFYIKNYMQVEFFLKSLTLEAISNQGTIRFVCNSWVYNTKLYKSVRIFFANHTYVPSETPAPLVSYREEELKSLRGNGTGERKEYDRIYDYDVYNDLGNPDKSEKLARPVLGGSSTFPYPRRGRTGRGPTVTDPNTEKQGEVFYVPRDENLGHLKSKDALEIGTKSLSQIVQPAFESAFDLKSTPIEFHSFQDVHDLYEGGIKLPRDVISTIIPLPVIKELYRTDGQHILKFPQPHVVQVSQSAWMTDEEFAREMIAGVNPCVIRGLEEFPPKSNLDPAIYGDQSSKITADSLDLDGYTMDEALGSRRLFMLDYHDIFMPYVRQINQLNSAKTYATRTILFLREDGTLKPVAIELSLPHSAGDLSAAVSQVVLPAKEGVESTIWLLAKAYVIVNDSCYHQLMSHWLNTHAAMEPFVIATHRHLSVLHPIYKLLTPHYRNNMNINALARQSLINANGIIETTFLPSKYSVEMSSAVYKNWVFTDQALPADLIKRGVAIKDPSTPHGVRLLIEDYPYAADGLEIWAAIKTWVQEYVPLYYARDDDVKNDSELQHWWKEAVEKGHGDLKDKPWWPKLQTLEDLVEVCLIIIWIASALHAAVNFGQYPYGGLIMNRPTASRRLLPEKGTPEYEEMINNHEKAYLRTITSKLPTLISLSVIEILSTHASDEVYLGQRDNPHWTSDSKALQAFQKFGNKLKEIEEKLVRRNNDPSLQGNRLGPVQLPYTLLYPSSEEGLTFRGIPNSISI
Experimental: In vitro anti-LOX activities were evaluated using soybean lipoxygenase isoenzyme-1 (SLOX-1), a commonly used model for mammalian LOXs.
An in vitro study was conducted following a previously reported method. The tested compounds were dissolved in DMSO (100 µM) and incubated at room temperature with 0.1 mL of sodium linoleate as the substrate and 0.2 mL of soybean lipoxygenase solution in Tris-HCl buffer (pH 9.0).

[2] = biological target: T2, bovine serum albumin (Bos taurus, UniProt P02769); assay: In vitro inhibition of albumin denaturation; details: heat denaturation, 60 °C 10 min
T2 construct: bovine serum albumin solution (fraction V); purchased Merck and Sigma-Aldrich; host or cells: bovine serum (fraction V)
Experimental: The ability of a compound to inhibit the thermal denaturation of albumin is considered an indicator of anti-inflammatory activity. Heat exposure simulates conditions of cellular stress or inflammation, during which protein and tissue damage occur. Certain substances can protect proteins from denaturation upon heating by stabilizing their structure and preventing aggregation and precipitation.
Inhibition of albumin denaturation was measured following the reported method. In a test tube, 1 mL of bovine serum albumin solution (fraction V, 1% w/v in phosphate buffer, pH 7.4) and 100 μL of the test compound solution were added sequentially. The mixture was incubated at 37 °C for 15 min, followed by heating at 60 °C for 10 min. After cooling to room temperature, the absorbance was measured at 660 nm. DMSO was used as the blank, and the results were compared to acetylsalicylic acid, which served as the reference compound (Table 6).

[3] = biological target: T3, ovine COX-2 (Ovis aries, UniProt P79208); assay: In vitro inhibition of ovine cyclooxygenase-2
T3 sequence (P79208 17-603): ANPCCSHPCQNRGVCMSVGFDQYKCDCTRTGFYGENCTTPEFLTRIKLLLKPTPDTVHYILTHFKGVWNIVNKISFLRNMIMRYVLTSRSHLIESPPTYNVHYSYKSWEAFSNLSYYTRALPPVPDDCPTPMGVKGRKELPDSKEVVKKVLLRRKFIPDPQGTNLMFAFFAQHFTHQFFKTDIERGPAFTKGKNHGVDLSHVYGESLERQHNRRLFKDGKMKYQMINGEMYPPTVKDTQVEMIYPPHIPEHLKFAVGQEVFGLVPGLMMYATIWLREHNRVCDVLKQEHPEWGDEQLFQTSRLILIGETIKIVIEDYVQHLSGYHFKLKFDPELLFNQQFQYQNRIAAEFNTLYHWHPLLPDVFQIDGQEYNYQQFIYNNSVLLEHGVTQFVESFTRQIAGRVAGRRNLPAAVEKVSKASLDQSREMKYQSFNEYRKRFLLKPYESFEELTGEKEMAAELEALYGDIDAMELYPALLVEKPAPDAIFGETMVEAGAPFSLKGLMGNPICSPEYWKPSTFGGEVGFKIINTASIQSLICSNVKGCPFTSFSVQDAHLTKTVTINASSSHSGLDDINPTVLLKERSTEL
Experimental: In order to prevent this in the in vitro experiment used for testing COX inhibition activity of the new molecules, a co-substrate like N,N,N′,N′-tetramethyl-p-phenylenediamine (TMPD) is included, as it undergoes co-oxidation by PGG2. The oxidized TMPD has a maximum absorbance at 590 nm. […] To ensure maximum enzyme activity, heme is added to the reaction mixture during the in vitro assay for ovine COX-2 inhibition and COX-1 inhibition [63].
The in vitro COX-2 inhibitory activity was assessed using arachidonic acid (AA) as a substrate and N,N,N′,N′-tetramethyl-p-phenylenediamine (TMPD) as a co-substrate in a Tris-HCl buffer (pH 8.5), following the reported method [89]. To the test tube, 10 µL of the compound dissolved in DMSO was added to a mixture containing 730 µL of Tris-HCl buffer (pH 8.5), 50 µL of heme, 10 µL of COX-2 enzyme, and 100 µL of TMPD. The absorbance was measured at 590 nm. […] A blank determination was conducted as a negative control.

[4] = In vitro determination of NO release with Griess reagent; details: 100 μM, L-cysteine, pH 7.4, 37 °C, 60 min
Source text: This assay evaluates the ability of nitrate esters to release nitric oxide (NO). First, sodium nitroprusside (SNP) reacts with the thiol compound, cysteine, which serves as a reducing agent (Scheme 5). The thiol donates electrons, facilitating the breakdown of the nitroprusside complex. Afterwards, the reaction leads to the formation of intermediate complexes, such as nitrosothiol species and the decomposition of these intermediates results in the release of nitric oxide (NO). According to the literature, measurements are conducted both in the presence and absence of the thiol agent, cysteine. No significant difference was observed between the two experimental conditions, and the results were reproducible. Sodium nitroprusside (SNP) was used as the reference compound [65].
The compounds (from a 10 mM stock solution in DMSO, final concentration 100 μM) are added (20 μL) to each test tube. Then, 2 mL of phosphate buffer solution (pH 7.4) is added. L-cysteine, used as the thiol agent, is added to the mixture at a final concentration of 0.5 mM. The solution is incubated at 37 °C for 60 min, after which 1 mL is removed and mixed with 250 μL of Griess reagent (4 g sulfanilamide, 0.2 g N-(1-naphthyl)-ethylenediamine dihydrochloride, and 10 mL of H3PO4 solution, final volume adjusted to 100 mL). The mixture is allowed to stand for 10 min at room temperature, and the absorbance of the produced compound is measured at 540 nm. Sodium nitroprusside (SNP) is used as the reference compound. The results are presented as the release of NO2^− (% NO2^− (mol/mol)) induced by the compounds in the presence of L-cysteine (Table 6).

[5] = In vitro inhibition of linoleic acid lipid peroxidation (AAPH); details: 100 μM; anti-lipid peroxidation
Source text: In the present study, the aim was to evaluate the anti-lipid peroxidation activities of the synthesized compounds 5a–i, 6a–i, 9a–i, and 11 and compare their efficacy to that of Trolox, a well-known antioxidant. Using the water-soluble compound 2,2′-azobis(2-amidinopropane) hydrochloride (AAPH), peroxyl radicals are generated through spontaneous thermal decomposition in vitro. This experimental setup imitated the lipid peroxidation processes occurring in cells due to radical activity allowing the investigation of the effectiveness of the tested compounds under conditions resembling cellular oxidative stress.
An in vitro assay was performed following previously established protocols. The compound 2,2′-Azobis(2-methylpropionamidine) dihydrochloride (AAPH) was used as a controlled source of thermally generated alkylperoxy free radicals. The formation of conjugated diene hydroperoxides through the oxidation of sodium linoleate in an aqueous dispersion at 37 °C was measured by monitoring absorbance at 234 nm. The results were compared with the reference compound, Trolox (93%) (Table 6).

T2 sequence (P02769 25-607): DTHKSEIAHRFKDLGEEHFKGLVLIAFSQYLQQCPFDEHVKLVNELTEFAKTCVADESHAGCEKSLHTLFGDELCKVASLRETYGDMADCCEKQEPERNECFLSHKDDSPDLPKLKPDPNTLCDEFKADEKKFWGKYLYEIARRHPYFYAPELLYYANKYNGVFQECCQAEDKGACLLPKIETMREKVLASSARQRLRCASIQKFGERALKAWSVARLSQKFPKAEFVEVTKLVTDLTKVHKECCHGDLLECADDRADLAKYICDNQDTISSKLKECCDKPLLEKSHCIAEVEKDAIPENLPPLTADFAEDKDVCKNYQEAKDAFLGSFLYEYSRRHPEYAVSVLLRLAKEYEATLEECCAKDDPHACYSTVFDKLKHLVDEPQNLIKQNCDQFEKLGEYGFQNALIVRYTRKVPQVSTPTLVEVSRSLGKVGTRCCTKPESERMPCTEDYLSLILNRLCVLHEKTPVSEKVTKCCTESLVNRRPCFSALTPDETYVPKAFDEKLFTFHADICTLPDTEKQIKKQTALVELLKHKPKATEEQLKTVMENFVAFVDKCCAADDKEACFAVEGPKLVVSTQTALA

Structure (SMILES)	IC50 [1] [µM]	Albumin (inhibition of albumin denaturation) [2]	COX-2 Inh. IC50 [3]	%NO2^− Release mol/mol at 100 μΜ [4]	AAPH Inh. at 100 μΜ [5]	LOX Inh. IC50 [1]	IC50 [3] [µM]
O=C(OCc1c(-c2ccccc2)no[n+]1[O-])/C(=C/c1cccc2ccccc12)c1ccccc1 [Compound 9h, (E)-3-(((3-(Naphthalen-1-yl)-2-phenylacryloyl)oxy)methyl)-4-phenyl-1,2,5-oxadiazole 2-oxide]	10	no	no	no	94.5%		
O=C(/C=C/c1ccco1)OCc1c(-c2ccccc2)no[n+]1[O-] [Compound 9d, (E)-3-(((3-(Furan-2-yl)acryloyl)oxy)methyl)-4-phenyl-1,2,5-oxadiazole 2-oxide]	63	no	no	no	78%		
O=C(C=Cc1ccccc1)OCc1c(-c2ccccc2)no[n+]1[O-] [Compound 9a, 3-((Cinnamoyloxy)methyl)-4-phenyl-1,2,5-oxadiazole 2-oxide]	3.5	no	no	20%	91.6%		
O=C(/C=C/c1cc2ccccc2o1)OCc1c(-c2ccccc2)no[n+]1[O-] [Compound 9f, (E)-3-(((3-(Benzofuran-2-yl)acryloyl)oxy)methyl)-4-phenyl-1,2,5-oxadiazole 2-oxide]	70	no	no	no	97%		
C/C(=N\O)c1ccc(NC(=O)COC(=O)/C=C/c2cccc3ccccc23)cc1 [Compound 6b, 2-((4-((E)-1-(Hydroxyimino)ethyl)phenyl)amino)-2-oxoethyl (E)-3-(naphthalen-1-yl)acrylate]	60	no	no	1.1%	94%		
C/C(=N\O)c1ccc(NC(=O)COC(=O)/C=C/c2cc3ccccc3s2)cc1 [Compound 6e, 2-((4-((E)-1-(Hydroxyimino)ethyl)phenyl)amino)-2-oxoethyl (E)-3-(benzo[b]thiophen-2-yl)acrylate]		63%	no	1.1%	no	no	
C/C(=N\O)c1ccc(NC(=O)COC(=O)/C=C/c2cc3ccccc3o2)cc1 [Compound 6f, 2-((4-((E)-1-(Hydroxyimino)ethyl)phenyl)amino)-2-oxoethyl (E)-3-(benzofuran-2-yl)acrylate]	61	no	no	0.3%	no		
O=C(/C=C/c1cccs1)OCc1c(-c2ccccc2)no[n+]1[O-] [Compound 9c, (E)-4-Phenyl-3-(((3-(thiophen-2-yl)acryloyl)oxy)methyl)-1,2,5-oxadiazole 2-oxide]		no	no	1.2%	73.3%	no	
O=C(C=Cc1cccc2ccccc12)OCc1c(-c2ccccc2)no[n+]1[O-] [Compound 9b, 3-(((3-(Naphthalen-1-yl)acryloyl)oxy)methyl)-4-phenyl-1,2,5-oxadiazole 2-oxide]		no	no	1.2%	84%	no	
C/C(=N\O)c1ccc(NC(=O)COC(=O)C=Cc2ccccc2)cc1 [Compound 6a, 2-((4-((E)-1-(Hydroxyimino)ethyl)phenyl)amino)-2-oxoethyl cinnamate]	50	no		no activity and no	50.2%		100

From article PMC12693419, “Design, Synthesis, Biological Evaluation, and In Silico Studies of Novel Multitarget Cinnamic Acid Hybrids” (Molecules, 2025)
